Measurements from patent US20180028507A1, “3-CARBAMOYLPHENYL-4-CARBOXAMIDE AND ISOPHTALAMIDE DERIVATIVES AS INHIBITORS OF THE WNT SIGNALLING PATHWAY” (Bayer Pharma Aktiengesellschaft, priority 2015, published 2018).

Assays:
[1] = test system: constitutive active colorectal cancer cell (CRC) Wnt pathway; assay: HCT116 TOPFlash cellular reporter assay (Super TopFlash vector, luciferase); assay type: cell-based; settings: Homo sapiens, HCT-116; HCT116 Super TopFlash reporter cells, 36 hours incubation, dilution series 50 μM to 15 nM, luciferase expression
Protocol: In order to discover and characterize small molecules which inhibit the constitutive active colorectal cancer cell (CRC) Wnt pathway, a cellular reporter assay was employed. The corresponding assay cell was generated by transfection of the colorectal cancer cell line HCT116 (ATCC, #CCL-247) with the Super TopFlash vector (Morin, Science 275, 1997, 1787-1790; Molenaar et al., Cell 86 (3), 1996, 391-399). The HCT116 cell line is cultivated at 37° C. and 5% CO2 in DMEM/F-12 (Life Technologies, #11320-074), supplemented with 2 mM glutamine, 20 mM HEPES, 1.4 mM pyruvate, 0.15% Na-bicarbonate and 10% foetal bovine serum (GIBCO, #10270), this cancer cell line is pathophysiological relevant since it carries a deletion of position S45 in the β-catenin gene, leading to constitutive active Wnt signaling. Stable transfectants were generated by cotransfection with pcDNA3 and selection of stable transfected cells with 1 mg/ml G418.
(§1) In preparation of the assay, the two cell lines were plated 24 hours before at 10000 cells per well of a 384 micro titre plate (MTP) in 30 μL growth medium. Selective inhibitory activity for small molecules on the mutated Wnt pathway was determined after parallel incubation of both (TOP and FOP) HCT116 reporter cell lines with a compound dilution series from 50 μM to 15 nM in steps of 3.16-fold dilutions in CAFTY buffer (130 mM NaCl, 5 mM KCl, 20 mM HEPES, 1 mM MgCl2, 5 mM NaHCO3, pH 7.4) containing 2 mM Ca^2+ and 0.01% BSA. The compounds were thereby serially prediluted in 100% DMSO and thereafter in addition 50 fold into the CAFTY compound dilution buffer (described above). From this dilution 10 μL were added to the cells in 30 μL growth medium and incubated for 36 hours at 37° C. and 5% CO2.

[2] = test system: HCT116 cells cotransfected with the FOP control vector (non-functional TCF elements); assay: HCT116 FOPFlash control reporter assay (FOP control vector, luciferase); assay type: cell-based; settings: Homo sapiens, HCT-116, 36 hours incubation, dilution series 50 μM to 15 nM, luciferase expression
Protocol: In a parallel approach, HCT116 cells were cotransfected with the FOP control vector and pcDNA3. The FOP vector is identical to the TOP construct, but it contains instead of functional TCF elements a randomized, non-functional sequence. For this transfection a stable transfected cell line was generated as well.
as §1

SMILES | IC50 [1] | IC50 [2]
COc1ccc(C(=O)Nc2ccc(-c3ccccc3F)nc2)cc1C(=O)NCc1ccccn1 [Example 53, N^1-[6-(2-fluorophenyl)pyridin-3-yl]-4-methoxy-N^3-(pyridin-2-ylmethyl)isophthalamide] | 10 µM | ≥ 50 µM
O=C(Nc1ccc(-c2cccnc2)cn1)c1ccc(OC(F)(F)F)c(C(=O)NCc2cnccn2)c1 [Example 50, N^1-(3,3′-bipyridin-6-yl)-N^3-(pyrazin-2-ylmethyl)-4-(trifluoromethoxy) isophthalamide] | 1.7 µM | ≥ 50 µM
COc1ccc(C(=O)Nc2ccc(-c3ccccc3)cc2)cc1C(=O)Nc1cccnc1C [Example 62, N^1-(biphenyl-4-yl)-4-methoxy-N^3-(2-methylpyridin-3-yl)isophthalamide] | 45 µM | ≥ 50 µM
COc1ccc(C(=O)Nc2ccc(-c3ccccc3F)nc2)cc1C(=O)Nc1ccncc1F [Example 27, N^1-[6-(2-fluorophenyl)pyridin-3-yl]-N^3-(3-fluoropyridin-4-yl)-4-methoxyisophthalamide] | 0.645 µM | ≥ 50 µM
COc1cnccc1NC(=O)c1cc(C(=O)Nc2ccc(-c3ccccc3)cc2)ccc1OC(F)(F)F [Example 23, N^1-(biphenyl-4-yl)-N^3-(3-methoxypyridin-4-yl)-4-(trifluoromethoxy)isophthalamide] | 0.243 µM | ≥ 50 µM
Cc1ncccc1NC(=O)c1cc(C(=O)Nc2ccc(-c3ccccc3F)nc2)ccc1OC(F)(F)F [Example 58, N^1-[6-(2-fluorophenyl)pyridin-3-yl]-N^3-(2-methylpyridin-3-yl)-4-(trifluoromethoxy) isophthalamide] | 1.9 µM | 6.6 µM
Cc1cnccc1NC(=O)c1cc(C(=O)Nc2ccc(-c3ccccc3F)nc2)ccc1OC(F)(F)F [Example 19, N^1-[6-(2-fluorophenyl)pyridin-3-yl]-N^3-(3-methylpyridin-4-yl)-4-(trifluoromethoxy)isophthalamide] | 0.878 µM | ≥ 50 µM
COc1cc(NC(=O)c2cc(C(=O)Nc3ccc(-c4ccccc4F)nc3)ccc2OC)ccn1 [Example 44, N^1-[6-(2-fluorophenyl)pyridin-3-yl]-4-methoxy-N^3-(2-methoxypyridin-4-yl)isophthalamide] | 2.82 µM | ≥ 50 µM
CCc1cc(NC(=O)c2cc(NC(=O)c3ccc(-c4ccccc4)cc3)ccc2OC)ccn1 [Example 36, N-{3-[(2-ethylpyridin-4-yl)carbamoyl]-4-methoxyphenyl}biphenyl-4-carboxamide] | 1.43 µM | 29 µM
COc1ccc(C(=O)Nc2ccc(-c3ccccc3)cc2)cc1C(=O)NCc1ccc(NC(=O)OC(C)(C)C)nc1 [Example 54, tert-butyl [5-({[5-(biphenyl-4-ylcarbamoyl)-2-methoxybenzoyl]amino}methyl)pyridin-2-yl]carbamate] | 3.2 µM | 16 µM
COc1ccc(C(=O)Nc2ccc(-c3ccccc3)cc2)cc1C(=O)Nc1ccnc(C)c1 [Example 12, N^1-(biphenyl-4-yl)-4-methoxy-N^3-(2-methylpyridin-4-yl)isophthalamide] | 0.635 µM | 13.5 µM
COc1ccc(C(=O)Nc2ccc(-c3ccccc3)cc2)cc1C(=O)NCc1ccccn1 [Example 39, N^1-(biphenyl-4-yl)-4-methoxy-N^3-(pyridin-2-ylmethyl)isophthalamide] | 3.4 µM | ≥ 50 µM
Cc1ncccc1NC(=O)c1cc(C(=O)Nc2ccc(-c3ccccc3)cc2)ccc1OC(F)(F)F [Example 40, N^1-(biphenyl-4-yl)-N^3-(2-methylpyridin-3-yl)-4-(trifluoromethoxy) isophthalamide] | 2.25 µM | ≥ 50 µM
COc1ccc(NC(=O)c2ccc(-c3ccccc3)cc2)cc1C(=O)NCc1cccc(C)n1 [Example 34, N-(4-methoxy-3-{[(6-methylpyridin-2-yl)methyl]carbamoyl}phenyl) biphenyl-4-carboxamide] | 3.65 µM | ≥ 50 µM
COCCCNC(=O)c1cc(NC(=O)c2ccc(-c3ccccc3)cc2)ccc1OC [Example 2, N-{4-methoxy-3-[(3-methoxypropyl)carbamoyl]phenyl}biphenyl-4-carboxamide] | 0.495 µM | ≥ 50 µM
COc1ccc(C(=O)Nc2ccc(-c3ccccc3F)nc2)cc1C(=O)Nc1cccnc1 [Example 60, N^1-[6-(2-fluorophenyl)pyridin-3-yl]-4-methoxy-N^3-(pyridin-3-yl)isophthalamide] | 6.05 µM | 11 µM
Cc1ccc(C(=O)Nc2ccc(-c3ccccc3)cc2)cc1C(=O)Nc1ccnc(F)c1 [Example 43, N^1-(biphenyl-4-yl)-N^3-(2-fluoropyridin-4-yl)-4-methylisophthalamide] | 1.37 µM | ≥ 50 µM
COc1ccc(NC(=O)c2ccc(-c3ccccc3)cc2)cc1C(=O)Nc1ccncc1Cl [Example 9, N-{3-[(3-chloropyridin-4-yl)carbamoyl]-4-methoxyphenyl}biphenyl-4-carboxamide] | 0.149 µM | ≥ 50 µM
COc1ccc(C(=O)Nc2ccc(-c3ccccc3)cc2)cc1C(=O)NCc1ccc(N)nc1 [Example 61, N^3-[(6-aminopyridin-3-yl)methyl]-N^1-(bipheny-4-yl)-4-methoxyisophthalamide] | 34 µM | ≥ 50 µM
COc1ccc(NC(=O)c2ccc(-c3ccccc3)cc2)cc1C(=O)Nc1ccncc1F [Example 8, N-{3-[(3-fluoropyridin-4-yl)carbamoyl]-4-methoxyphenyl}biphenyl-4-carboxamide] | 0.129 µM | ≥ 50 µM
COc1ccc(NC(=O)c2ccc(-c3ccccc3)cc2)cc1C(=O)Nc1ccnc(C)c1 [Example 3, N-{4-methoxy-3-[(2-methylpyridin-4-yl)carbamoyl]phenyl}biphenyl-4-carboxamide] | 0.0917 µM | 28 µM
Cc1cncc(NC(=O)c2cc(C(=O)Nc3ccc(-c4ccccc4)cc3)ccc2OC(F)(F)F)c1 [Example 47, N^1-(biphenyl-4-yl)-N^3-(5-methylpyridin-3-yl)-4-(trifluoromethoxy) isophthalamide] | 2.63 µM | ≥ 50 µM
Cc1cc(NC(=O)c2cc(C(=O)Nc3ccc(-c4ccccc4F)nc3)ccc2OC(F)(F)F)ccn1 [Example 59, N^1-[6-(2-fluorophenyl)pyridin-3-yl]-N^3-(2-methylpyridin-4-yl)-4-(trifluoromethoxy) isophthalamide] | 1.7 µM | 5.5 µM
COCCNC(=O)c1cc(NC(=O)c2ccc(-c3ccccc3)cc2)ccc1OC [Example 31, N-{4-methoxy-3-[(2-methoxyethyl)carbamoyl]phenyl}biphenyl-4-carboxamide] | 4.59 µM | ≥ 50 µM
O=C(Nc1ccc(-c2ccccc2F)nc1)c1ccc(OC(F)(F)F)c(C(=O)NCc2ccccn2)c1 [Example 52, N^1-[6-(2-fluorophenyl)pyridin-3-yl]-N^3-(pyridin-2-ylmethyl)-4-(trifluoromethoxy) isophthalamide] | 1.75 µM | 12 µM
COc1ccc(C(=O)Nc2ccc(-c3ccccc3F)nc2)cc1C(=O)NCc1cccnc1 [Example 41, N^1-[6-(2-fluorophenyl)pyridin-3-yl]-4-methoxy-N^3-(pyridin-3-ylmethyl)isophthalamide] | 1.6 µM | ≥ 50 µM
